# Experimental data: publication PMC9150124, “Design of a Potent, Selective, and Brain-Penetrant Inhibitor of Wnt-Deactivating Enzyme Notum by Optimization of a Crystallographic Fragment Hit” (Journal of Medicinal Chemistry, 2022)
# Legend:
# Experiment in all cases: SelectScreen kinase profiling, SSBK ZLyte SP Technology
# Type in all cases: biochemical
# [1] = molecular target: kinase named in conditions (Homo sapiens, UniProt O14757); conditions: CHEK1 (CHK1), 10 μM
# Description: (§1) Kinase selectivity screening was performed by Thermo Fisher Scientific (Paisley, U.K.) in their SelectScreen Biochemical Kinase Profiling Service. Assay information and data are presented in the Supporting Information.
# (§2) Kinase selectivity screening was performed by ThermoFisher Scientific (Paisley, U.K.) in their SelectScreenTM
# (§3) Biochemical Kinase Profiling service .
# [2] = molecular target: kinase named in conditions (Homo sapiens, UniProt O75914); conditions: PAK3, 10 μM
# Description: as §1, §2, §3
# [3] = molecular target: kinase named in conditions (Homo sapiens, UniProt P00519, F317L); conditions: ABL1 F317L, 10 μM
# Description: as §1, §2, §3
# [4] = molecular target: kinase named in conditions (Homo sapiens, UniProt P00533, T790M); conditions: EGFR (ErbB1) T790M, 10 μM
# Description: as §1, §2, §3
# [5] = molecular target: kinase named in conditions (Homo sapiens, UniProt P06241); conditions: FYN, 10 μM
# Description: as §1, §2, §3
# [6] = molecular target: kinase named in conditions (Homo sapiens, UniProt P07949, V804E); conditions: RET V804E, 10 μM
# Description: as §1, §2, §3
# [7] = molecular target: kinase named in conditions (Homo sapiens, UniProt P08581); conditions: MET (cMet), 10 μM
# Description: as §1, §2, §3
# [8] = molecular target: kinase named in conditions (Homo sapiens, UniProt P09619); conditions: PDGFRB (PDGFR beta), 10 μM
# Description: as §1, §2, §3
# [9] = molecular target: kinase named in conditions (Homo sapiens, UniProt P16234); conditions: PDGFRA (PDGFR alpha), 10 μM
# Description: as §1, §2, §3
# [10] = molecular target: kinase named in conditions (Homo sapiens, UniProt P16234, T674I); conditions: PDGFRA T674I, 10 μM
# kinase named in conditions (Homo sapiens, UniProt P16234, T674I), sequence (P16234 24-1089 T674I): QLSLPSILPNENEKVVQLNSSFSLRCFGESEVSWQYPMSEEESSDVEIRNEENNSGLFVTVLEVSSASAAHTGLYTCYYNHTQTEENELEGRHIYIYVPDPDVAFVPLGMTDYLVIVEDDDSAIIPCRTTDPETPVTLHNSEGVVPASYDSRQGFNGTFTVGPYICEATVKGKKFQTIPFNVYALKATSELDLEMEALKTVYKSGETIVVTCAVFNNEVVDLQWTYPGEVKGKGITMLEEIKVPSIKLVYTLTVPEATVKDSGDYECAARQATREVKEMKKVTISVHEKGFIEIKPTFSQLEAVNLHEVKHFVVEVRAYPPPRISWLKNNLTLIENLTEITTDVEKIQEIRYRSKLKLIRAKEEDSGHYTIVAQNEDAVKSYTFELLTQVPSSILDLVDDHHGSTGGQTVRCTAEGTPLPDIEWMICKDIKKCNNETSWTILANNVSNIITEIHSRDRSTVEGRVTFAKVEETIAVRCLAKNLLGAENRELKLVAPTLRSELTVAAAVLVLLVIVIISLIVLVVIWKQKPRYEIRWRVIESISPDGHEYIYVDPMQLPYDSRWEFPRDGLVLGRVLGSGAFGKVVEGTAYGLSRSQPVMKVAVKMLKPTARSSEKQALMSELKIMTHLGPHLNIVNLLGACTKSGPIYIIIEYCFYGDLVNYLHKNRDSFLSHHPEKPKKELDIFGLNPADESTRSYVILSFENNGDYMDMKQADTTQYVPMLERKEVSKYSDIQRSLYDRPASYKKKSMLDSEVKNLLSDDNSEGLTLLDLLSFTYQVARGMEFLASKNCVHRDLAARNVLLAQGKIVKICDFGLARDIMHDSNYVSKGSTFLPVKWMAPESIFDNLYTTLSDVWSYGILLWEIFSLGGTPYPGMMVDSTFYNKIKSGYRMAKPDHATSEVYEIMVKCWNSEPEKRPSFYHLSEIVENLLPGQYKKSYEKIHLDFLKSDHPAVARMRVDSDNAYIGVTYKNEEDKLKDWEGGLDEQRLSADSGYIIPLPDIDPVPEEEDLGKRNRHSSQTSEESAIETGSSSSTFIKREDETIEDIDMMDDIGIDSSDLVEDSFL
# Description: as §1, §2, §3
# [11] = molecular target: kinase named in conditions (Homo sapiens, UniProt P17252); conditions: PRKCA (PKC alpha), 10 μM
# Description: as §1, §2, §3
# [12] = molecular target: kinase named in conditions (Homo sapiens, UniProt P21802); conditions: FGFR2, 10 μM
# kinase named in conditions (Homo sapiens, UniProt P21802), sequence (P21802 22-821): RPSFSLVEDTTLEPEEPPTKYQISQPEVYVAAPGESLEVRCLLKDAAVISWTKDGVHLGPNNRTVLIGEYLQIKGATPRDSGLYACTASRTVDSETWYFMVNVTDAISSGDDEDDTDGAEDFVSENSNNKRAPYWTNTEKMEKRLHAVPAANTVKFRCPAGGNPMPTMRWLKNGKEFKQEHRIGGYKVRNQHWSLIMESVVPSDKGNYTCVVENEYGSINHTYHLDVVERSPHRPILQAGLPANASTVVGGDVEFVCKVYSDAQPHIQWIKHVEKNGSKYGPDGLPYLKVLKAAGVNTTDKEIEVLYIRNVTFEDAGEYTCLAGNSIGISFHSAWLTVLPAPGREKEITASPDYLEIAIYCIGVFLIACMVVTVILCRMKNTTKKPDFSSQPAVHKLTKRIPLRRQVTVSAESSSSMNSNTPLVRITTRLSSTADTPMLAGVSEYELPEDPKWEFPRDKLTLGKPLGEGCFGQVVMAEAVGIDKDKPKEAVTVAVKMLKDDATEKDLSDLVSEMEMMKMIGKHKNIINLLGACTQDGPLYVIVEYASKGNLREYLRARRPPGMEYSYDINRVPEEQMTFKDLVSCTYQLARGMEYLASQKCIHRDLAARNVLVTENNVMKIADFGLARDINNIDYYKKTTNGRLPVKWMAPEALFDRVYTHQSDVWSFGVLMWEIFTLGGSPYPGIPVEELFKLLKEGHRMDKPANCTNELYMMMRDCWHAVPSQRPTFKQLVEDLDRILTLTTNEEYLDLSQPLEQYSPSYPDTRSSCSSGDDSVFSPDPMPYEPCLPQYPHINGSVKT
# Description: as §1, §2, §3
# [13] = molecular target: kinase named in conditions (Homo sapiens, UniProt P22607, K650E); conditions: FGFR3 K650E, 10 μM
# kinase named in conditions (Homo sapiens, UniProt P22607, K650E), sequence (P22607 23-806 K650E): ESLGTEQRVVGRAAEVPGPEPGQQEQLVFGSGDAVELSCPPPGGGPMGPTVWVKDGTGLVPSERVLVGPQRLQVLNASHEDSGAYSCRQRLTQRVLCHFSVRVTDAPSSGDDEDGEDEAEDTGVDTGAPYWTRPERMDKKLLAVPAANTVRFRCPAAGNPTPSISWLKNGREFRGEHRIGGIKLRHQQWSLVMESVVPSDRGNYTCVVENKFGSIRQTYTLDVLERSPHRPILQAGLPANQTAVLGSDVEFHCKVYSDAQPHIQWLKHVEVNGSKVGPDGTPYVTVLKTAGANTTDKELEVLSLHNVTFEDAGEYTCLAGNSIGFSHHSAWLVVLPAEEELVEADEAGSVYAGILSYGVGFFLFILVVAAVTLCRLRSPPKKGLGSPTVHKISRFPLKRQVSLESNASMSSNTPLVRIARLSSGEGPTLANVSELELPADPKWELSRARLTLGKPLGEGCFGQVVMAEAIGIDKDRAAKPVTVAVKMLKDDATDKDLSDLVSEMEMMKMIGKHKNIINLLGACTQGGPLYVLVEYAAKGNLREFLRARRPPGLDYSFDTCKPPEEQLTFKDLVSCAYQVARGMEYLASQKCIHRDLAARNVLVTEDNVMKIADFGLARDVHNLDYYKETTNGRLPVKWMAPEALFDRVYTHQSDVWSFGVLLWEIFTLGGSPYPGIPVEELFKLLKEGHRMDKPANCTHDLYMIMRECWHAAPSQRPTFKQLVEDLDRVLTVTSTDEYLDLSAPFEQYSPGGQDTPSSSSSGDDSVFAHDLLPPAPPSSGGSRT
# Description: as §1, §2, §3
# [14] = molecular target: kinase named in conditions (Homo sapiens, UniProt P35916); conditions: FLT4 (VEGFR3), 10 μM
# Description: as §1, §2, §3
# [15] = molecular target: kinase named in conditions (Homo sapiens, UniProt P36507); conditions: MAP2K2 (MEK2), 10 μM
# Description: as §1, §2, §3
# [16] = molecular target: kinase named in conditions (Homo sapiens, UniProt P41240); conditions: CSK, 10 μM
# Description: as §1, §2, §3
# [17] = molecular target: kinase named in conditions (Homo sapiens, UniProt P41279); conditions: MAP3K8 (COT), 10 μM
# Description: as §1, §2, §3
# [18] = molecular target: kinase named in conditions (Homo sapiens, UniProt P48730); conditions: CSNK1D (CK1 delta), 10 μM
# Description: as §1, §2, §3
# [19] = molecular target: kinase named in conditions (Homo sapiens, UniProt P52333); conditions: JAK3, 10 μM
# Description: as §1, §2, §3
# [20] = molecular target: kinase named in conditions (Homo sapiens, UniProt P53350); conditions: PLK1, 10 μM
# Description: as §1, §2, §3
# [21] = molecular target: kinase named in conditions (Homo sapiens, UniProt P80192); conditions: MAP3K9 (MLK1), 10 μM
# Description: as §1, §2, §3
# [22] = molecular target: kinase named in conditions (Homo sapiens, UniProt Q00535)
# kinase named in conditions (Homo sapiens, UniProt Q00535), sequence (Q00535 whole entry): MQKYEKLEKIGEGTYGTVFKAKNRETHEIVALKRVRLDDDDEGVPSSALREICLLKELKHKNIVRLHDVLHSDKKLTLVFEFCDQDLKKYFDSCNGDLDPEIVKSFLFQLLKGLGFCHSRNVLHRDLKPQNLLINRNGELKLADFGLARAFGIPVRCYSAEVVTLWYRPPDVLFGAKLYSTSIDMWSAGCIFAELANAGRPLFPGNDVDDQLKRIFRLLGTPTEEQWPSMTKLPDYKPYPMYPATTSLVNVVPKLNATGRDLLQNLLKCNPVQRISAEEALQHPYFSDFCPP
# Description: as §1, §2, §3
# [23] = molecular target: kinase named in conditions (Homo sapiens, UniProt Q02156); conditions: PRKCE (PKC epsilon), 10 μM
# Description: as §1, §2, §3
# [24] = molecular target: kinase named in conditions (Homo sapiens, UniProt Q02750); conditions: MAP2K1 (MEK1), 10 μM
# kinase named in conditions (Homo sapiens, UniProt Q02750), sequence (Q02750 whole entry): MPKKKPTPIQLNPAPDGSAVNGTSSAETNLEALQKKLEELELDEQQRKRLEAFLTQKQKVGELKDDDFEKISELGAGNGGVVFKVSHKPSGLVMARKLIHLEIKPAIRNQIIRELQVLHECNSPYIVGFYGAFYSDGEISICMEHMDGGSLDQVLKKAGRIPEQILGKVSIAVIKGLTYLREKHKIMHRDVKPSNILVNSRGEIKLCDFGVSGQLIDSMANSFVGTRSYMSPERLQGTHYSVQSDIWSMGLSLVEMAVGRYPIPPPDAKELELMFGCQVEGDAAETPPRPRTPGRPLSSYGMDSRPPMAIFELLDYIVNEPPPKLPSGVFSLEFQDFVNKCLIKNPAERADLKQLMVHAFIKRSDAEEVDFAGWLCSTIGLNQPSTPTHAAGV
# Description: as §1, §2, §3
# [25] = molecular target: kinase named in conditions (Homo sapiens, UniProt Q05655); conditions: PRKCD (PKC delta), 10 μM
# Description: as §1, §2, §3
# [26] = molecular target: kinase named in conditions (Homo sapiens, UniProt Q06187); conditions: BTK, 10 μM
# kinase named in conditions (Homo sapiens, UniProt Q06187), sequence (Q06187 whole entry): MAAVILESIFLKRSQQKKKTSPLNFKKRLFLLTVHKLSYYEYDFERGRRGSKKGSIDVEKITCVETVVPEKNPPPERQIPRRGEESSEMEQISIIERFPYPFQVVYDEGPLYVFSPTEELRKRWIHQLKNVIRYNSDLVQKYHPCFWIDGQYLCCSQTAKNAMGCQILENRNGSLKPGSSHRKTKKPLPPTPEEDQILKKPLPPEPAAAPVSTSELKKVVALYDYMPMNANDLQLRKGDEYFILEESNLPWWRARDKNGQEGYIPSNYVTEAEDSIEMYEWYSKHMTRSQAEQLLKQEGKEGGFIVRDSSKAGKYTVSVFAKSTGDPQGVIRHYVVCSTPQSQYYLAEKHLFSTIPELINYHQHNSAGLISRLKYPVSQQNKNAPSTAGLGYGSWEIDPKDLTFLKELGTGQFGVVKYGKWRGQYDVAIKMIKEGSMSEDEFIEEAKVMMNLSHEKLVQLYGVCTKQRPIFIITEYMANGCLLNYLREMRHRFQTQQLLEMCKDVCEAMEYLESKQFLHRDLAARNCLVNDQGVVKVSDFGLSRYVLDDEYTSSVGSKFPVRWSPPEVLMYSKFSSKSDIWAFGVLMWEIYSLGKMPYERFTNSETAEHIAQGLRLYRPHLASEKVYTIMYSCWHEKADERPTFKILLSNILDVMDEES
# Description: as §1, §2, §3
# [27] = molecular target: kinase named in conditions (Homo sapiens, UniProt Q13177); conditions: PAK2 (PAK65), 10 μM
# Description: as §1, §2, §3
# [28] = molecular target: kinase named in conditions (Homo sapiens, UniProt Q14289); conditions: PTK2B (FAK2), 10 μM
# Description: as §1, §2, §3
# [29] = molecular target: kinase named in conditions (Homo sapiens, UniProt Q15418); conditions: RPS6KA1 (RSK1), 10 μM
# Description: as §1, §2, §3
# [30] = molecular target: kinase named in conditions (Homo sapiens, UniProt Q86V86); conditions: PIM3, 10 μM
# Description: as §1, §2, §3
# [31] = molecular target: kinase named in conditions (Homo sapiens, UniProt Q8TD19); conditions: NEK9, 10 μM
# Description: as §1, §2, §3
# [32] = molecular target: kinase named in conditions (Homo sapiens, UniProt Q9NYY3); conditions: PLK2, 10 μM
# Description: as §1, §2, §3
# [33] = molecular target: kinase named in conditions (Homo sapiens, UniProt Q9Y4K4); conditions: MAP4K5 (KHS1), 10 μM
# Description: as §1, §2, §3
# [34] = molecular target: kinase named in conditions (Homo sapiens, UniProt Q9Y5S2); conditions: CDC42 BPB (MRCKB), 10 μM
# Description: as §1, §2, §3
smiles,measurement,setting,value
"FC(F)(F)c1c(Cl)ccc(-n2ccnn2)c1Cl [8l, 1-(2,4-Dichloro-3-(trifluoromethyl)phenyl)-1H-1,2,3-triazole]",inhibition at 10 µM,[1],24%
same,inhibition at 10 µM,[2],8%
same,inhibition at 10 µM,[3],16%
same,inhibition at 10 µM,[4],9%
same,inhibition at 10 µM,[5],0%
same,inhibition at 10 µM,[6],4%
same,inhibition at 10 µM,[7],8%
same,inhibition at 10 µM,[8],20%
same,inhibition at 10 µM,[9],13%
same,inhibition at 10 µM,[10],4%
same,inhibition at 10 µM,[11],-18%
same,inhibition at 10 µM,[12],11%
same,inhibition at 10 µM,[13],-5%
same,inhibition at 10 µM,[14],0%
same,inhibition at 10 µM,[15],6%
same,inhibition at 10 µM,[16],2%
same,inhibition at 10 µM,[17],0%
same,inhibition at 10 µM,[18],3%
same,inhibition at 10 µM,[19],7%
same,inhibition at 10 µM,[20],13%
same,inhibition at 10 µM,[21],-4%
same,inhibition at 10 µM,"[22]; CDK5/p25, 10 μM",1%
same,inhibition at 10 µM,"[22]; CDK5/p35, 10 μM",7%
same,inhibition at 10 µM,[23],-1%
same,inhibition at 10 µM,[24],-5%
same,inhibition at 10 µM,[25],-4%
same,inhibition at 10 µM,[26],21%
same,inhibition at 10 µM,[27],5%
same,inhibition at 10 µM,[28],7%
same,inhibition at 10 µM,[29],8%
same,inhibition at 10 µM,[30],6%
same,inhibition at 10 µM,[31],-3%
same,inhibition at 10 µM,[32],15%
same,inhibition at 10 µM,[33],-10%
same,inhibition at 10 µM,[34],-1%
